Target: T1, rabbit reticulocyte 15-LO (Oryctolagus cuniculus, UniProt P12530)
T1 construct: Fifteen-lipoxygenase was obtained from phenylhydrazine-treated rabbits and purified per the method of Rapoport; from tissue; host or cells: reticulocytes of phenylhydrazine-treated rabbits
T1 sequence (P12530 1-663): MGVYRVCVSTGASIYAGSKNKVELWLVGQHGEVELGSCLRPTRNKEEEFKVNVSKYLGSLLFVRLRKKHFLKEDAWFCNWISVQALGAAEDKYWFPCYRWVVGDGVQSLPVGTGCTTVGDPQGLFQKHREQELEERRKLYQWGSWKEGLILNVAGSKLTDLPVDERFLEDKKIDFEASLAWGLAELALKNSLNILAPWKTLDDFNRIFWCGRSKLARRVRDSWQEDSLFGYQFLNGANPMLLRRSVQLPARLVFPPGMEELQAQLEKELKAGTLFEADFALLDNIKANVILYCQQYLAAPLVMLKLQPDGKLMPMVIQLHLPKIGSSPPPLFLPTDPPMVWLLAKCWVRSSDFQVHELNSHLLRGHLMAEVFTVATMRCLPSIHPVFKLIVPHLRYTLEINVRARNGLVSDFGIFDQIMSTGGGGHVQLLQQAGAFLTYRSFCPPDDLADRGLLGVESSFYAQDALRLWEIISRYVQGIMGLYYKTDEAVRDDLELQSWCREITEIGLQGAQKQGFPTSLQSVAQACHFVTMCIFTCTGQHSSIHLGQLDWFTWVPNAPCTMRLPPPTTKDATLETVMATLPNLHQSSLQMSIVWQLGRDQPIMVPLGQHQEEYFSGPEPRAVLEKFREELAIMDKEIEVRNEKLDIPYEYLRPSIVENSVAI
Assay: Rabbit Reticulocyte 15-LO Assay (h15LO)
Format: biochemical
Details: Table 2; 2U rabbit reticulocyte 15-LO, 174 μM linoleic acid, 15 minutes at 4° C.
Method: Rabbit Reticulocyte 15-LO Assay (h15LO)
The present 15-LO assay takes advantage of the ability of 15-LO to oxidize the fatty acid linoleic acid to the hydroperoxy fatty acid 13-(S)HPODE, resulting in the formation of a conjugated diene. The 15-LO inhibitors are incubated with 15-LO enzyme in the presence of linoleic acid substrate. The initial reaction is compared to an uninhibited (maximal) reaction to yield % inhibition. […] This prevents artificial nonenzyme lipid peroxidation and product breakdown in the sample. 13-HPODE is quantitated by comparing peak areas of individual samples with those from a standard curve generated using authentic 13-HODE. This assay is performed using 2U of rabbit reticulocyte 15-LO in the presence of 174 μM linoleic acid. The reaction is incubated for 15 minutes at 4° C. The total reaction volume is 100 μL in PBS containing 0.2% Na cholate.
Fifteen-lipoxygenase was obtained from phenylhydrazine-treated rabbits and purified per the method of Rapoport (Rapoport S. M., Schewe T., Wiesner R., et al. The lipoxygenase of reticulocytes. Purification, characterization, and biological dynamics of the lipoxygenase; its identity with the respiratory inhibitors of the reticulocyte. European Journal of Biochemistry, 1979;96:545-561). The following chemicals were purchased and used as received: linoleic acid (NUJCheck Prep), 13-HPODE (Biomol Research Labs), sodium cholate (Sigma), trimethyl phosphite (Fluka Chemicals).

| Structure (SMILES) | IC50 [nM] |
| --- | --- |
| COc1ccc(C(=O)Nc2ccc(F)cc2)cc1NCc1cccs1 [Example 260, 4-Methoxy-3-[(thiophen-2-ylmethyl)-amino]-N-(4-fluoro-phenyl)-benzamide] | 186 |
| COc1ccc(C(=O)Nc2ccccc2)cc1NCc1cccc(C)c1 [Example 273, 4-Methoxy-3-(3-methyl-benzylamino)-N-phenyl-benzamide] | 385 |
| COc1ccc(NC(=O)c2ccc(F)c(F)c2)cc1NC(=S)Nc1ccc(C(=O)O)cc1 [Example 168, 4-{3-[5-(3,4-Difluoro-benzoylamino)-2-methoxy-phenyl]-thioureido}-benzoic Acid acid] | 109 |
| COc1ccc(C(=O)Nc2ccccc2)cc1NCc1cccc(C(F)(F)F)c1 [Example 269, 4-Methoxy-3-(3-trifluoromethyl-benzylamino)-N-phenyl-benzamide] | 221 |
| COc1ccc(C(=O)Nc2ccccc2)cc1NS(=O)(=O)c1ccc2ccccc2c1 [Example 140, 3-(Naphthalene-2-sulfonylamino)-4-methoxy-N-phenyl-benzamide] | 39 |
| COc1ccc(C(=O)Nc2ccccc2)cc1NCc1ccc(OC(C)=O)cc1 [Example 220, Acetic acid 4-[(2-methoxy-5-phenylcarbamoyl-phenylamino)-methyl]-phenyl Ester] | 509 |
| COc1ccc(C(=O)Nc2ccccc2)cc1NCc1ccc(N(C)C)cc1 [Example 268, 3-(4-Dimethylamino-benzylamino)-4-methoxy-N-phenyl-benzamide] | 213 |
| COc1ccc(C(=O)Nc2ccccc2)cc1NCc1cccs1 [Example 259, 4-Methoxy-3-[(thiophen-2-ylmethyl)-amino]-N-phenyl-benzamide] | 137 |
| COc1ccc(C(=O)Nc2ccccc2)cc1NCc1cccc([N+](=O)[O-])c1 [Example 215, 4-Methoxy-3-(3-nitro-benzylamino)-N-phenyl-benzamide] | 110 |
| COc1ccc(C(=O)Nc2ccccc2)cc1Nc1cccc(C(F)(F)F)c1 [Example 30, 3-(3-Trifluoromethyl-phenylamino)-4-methoxy-N-phenyl-benzamide] | 10 |
| CCOC(=O)c1cccc(NC(=O)c2ccc(OC)c(N)c2)c1 [Example 148, 3-(3-Amino-4-methoxy-benzoylamino)-benzoic Acid Ethyl Ester] | 613 |
| COc1ccc(C(=O)Nc2ccccc2)cc1NCc1ccc2c(c1)OCO2 [Example 266, 3-[(Benzo[1,3]dioxol-5-ylmethyl)-amino]-4-methoxy-N-phenyl-benzamide] | 197 |
| COc1ccc(C(=O)Nc2ccccc2)cc1CNS(=O)(=O)c1cc(Cl)cc(Cl)c1 [Example 249, 3-[(3,5-Dichloro-benzenesulfonylamino)-methyl]-4-methoxy-N-phenyl-benzamide] | 58 |
| COc1ccc(C(=O)Nc2ccc(F)c(F)c2)cc1NC(=S)Nc1cccc(C(=O)O)c1 [Example 162, 3-{3-[5-(3,4-Difluoro-phenylcarbamoyl)-2-methoxy-phenyl]-thioureido}-benzoic Acid] | 55 |
| CCCCCCCCCCCCCCCCCCS(=O)(=O)Nc1cc(C(=O)Nc2ccccc2)ccc1OC [Example 184, 3-(Octadecane-1-sulfonylamino)-4-methoxy-N-phenyl-benzamide] | 732 |
| COc1ccc(C(=O)Nc2ccccc2)cc1NCc1cccc(F)c1F [Example 219, 3-(2,3-Difluoro-benzylamino)-4-methoxy-N-phenyl-benzamide] | 166 |

Same assay, conditions: Table 2; concentration not given

| Structure (SMILES) | h15LO, value given as bare % [%] |
| --- | --- |
| COc1ccc(NC(=O)c2ccc(F)c(F)c2)cc1NS(=O)(=O)c1cccc([N+](=O)[O-])c1 [Example 203, 3,4-Difluoro-N-[4-methoxy-3-(3-nitro-benzenesulfonylamino)-phenyl]-benzamide] | 92.01 |
| COc1ccc(C(=O)Nc2ccc(F)cc2)cc1NC(=S)Nc1cccc(C(=O)O)c1 [Example 167, 3-{3-[5-(4-Fluoro-phenylcarbamoyl)-2-methoxy-phenyl]-thioureido}-benzoic Acid] | 96.22 |
| COc1ccc(C(=O)Nc2ccc(Cl)c(Cl)c2)cc1NCc1cccs1 [Example 261, 4-Methoxy-3-[(thiophen-2-ylmethyl)-amino]-N-(3,4-dichloro-phenyl)-benzamide] | 98.57 |
| COc1ccc(C(=O)Nc2ccccc2)cc1NCc1ccc(O)c([N+](=O)[O-])c1 [Example 225, 3-(4-Hydroxy-3-nitro-benzylamino)-4-methoxy-N-phenyl-benzamide] | 97.88 |
| COc1ccc(C(=O)Nc2ccc(F)c(F)c2)cc1NS(=O)(=O)c1ccc(C#N)cc1 [Example 187, 3-(4-Cyano-benzenesulfonylamino)-4-methoxy-N-(3,4-difluoro-phenyl)-benzamide] | 98.38 |
| COc1ccc(NC(=O)c2ccc(F)c(F)c2)cc1NS(=O)(=O)c1ccc([N+](=O)[O-])cc1 [Example 202, 3,4-Difluoro-N-[4-methoxy-3-(4-nitro-benzenesulfonylamino)-phenyl]-benzamide] | 93.85 |
| COc1ccccc1CNc1cc(C(=O)Nc2ccccc2)ccc1OC [Example 238, 4-Methoxy-3-(2-methoxy-benzylamino)-N-phenyl-benzamide] | 60 |
| COc1ccc(C(=O)Nc2ccccc2)cc1NCc1ccc(C(C)C)cc1 [Example 243, 3-(4-Isopropyl-benzylamino)-4-methoxy-N-phenyl-benzamide] | 49.19 |
| COc1ccc(C(=O)Nc2ccc(F)cc2)cc1NS(=O)(=O)c1cccc(C#N)c1 [Example 189, 3-(3-Cyano-benzenesulfonylamino)-4-methoxy-N-(4-fluoro-phenyl)-benzamide] | 97.17 |
| COc1ccc(C(=O)Nc2ccc(F)cc2)cc1Nc1cc(Cl)cc(Cl)c1 [Example 154] | 97.66 |
| COc1ccc(C(=O)Nc2ccc(F)c(F)c2)cc1NCc1cccc(C(=O)O)c1 [Example 230, 3-{[5-(3,4-Difluoro-phenylcarbamoyl)-2-methoxy-phenylamino]-methyl}-benzoic Acid] | 92.57 |
| COc1ccc(C(=O)Nc2ccc(F)cc2)cc1NC(=S)Nc1ccc(C(=O)O)cc1 [Example 166, 4-{3-[5-(4-Fluoro-phenylcarbamoyl)-2-methoxy-phenyl]-thioureido}-benzoic Acid] | 98.11 |
| COc1ccc(C(=O)Nc2ccccc2)cc1NCc1cccc(C#N)c1 [Example 229, 3-(3-Cyano-benzylamino)-4-methoxy-N-phenyl-benzamide] | 92.70 |
| COc1ccc(C(=O)Nc2ccccc2)cc1NCc1ccc(-c2ccccc2)cc1 [Example 236, 3-[(Biphenyl-4-ylmethyl)-amino]-4-methoxy-N-phenyl-benzamide] | 64.09 |
| Nc1cc(NC(=O)c2ccc(F)c(F)c2)ccc1F [Example 151, 3,4-Difluoro-N-(3-amino-4-fluoro-phenyl)-benzamide] | 82.66 |
| COc1ccc(NC(=O)Nc2ccc(Cl)c(Cl)c2)cc1NC(=S)Nc1cccc(C(=O)O)c1 [Example 173, 3-(3-{5-[3-(3,4-Dichloro-phenyl}-ureido]-2-methoxy-phenyl)-thioureido)-benzoic Acid] | 55 |
| COc1ccc(NC(=O)c2ccc(F)c(F)c2)cc1NCc1cccs1 [Example 265, 3,4-Difluoro-N-{4-methoxy-3-[(thiophen-2-ylmethyl)-amino]-phenyl}-benzamide] | 98.89 |
| COC(=O)c1cccc(NC(=S)Nc2cc(NC(=O)Nc3ccc(Cl)c(Cl)c3)ccc2OC)c1 [Example 172, 3-(3-{5-[3-(3,4-Dichloro-phenyl)-ureido]-2-methoxy-phenyl}-thioureido)-benzoic Acid Methyl Ester] | 89.03 |
| COc1ccc(C(=O)Nc2ccc(F)c(F)c2)cc1NS(=O)(=O)c1cccc(N)c1 [Example 185, 3-(3-Amino-benzenesulfonylamino)-4-methoxy-N-(3,4-difluoro-phenyl)-benzamide] | 99.71 |

— patent publication US6528528B2 (Warner-Lambert Company, priority 1997, dated 2003)
